# Laboratory results as given in patent US12121596B2, “Near infrared fluorescent dyes, formulations and related methods” (Washington University, priority 2019, dated 2024).
# Positions of bridges follow the written chain, without caps; N, C: chain ends. Non-standard residues stand in square brackets, D forms with d. Residues, ends and D or L forms follow the SMILES beside them. *: point of attachment. X1 = CC1(C)C(/C=C/C=C/C=C/C=C2/N(CCC(=O)*)c3ccc4ccccc4c3C2(C)C)=[N+](CCC(=O)[O-])c2ccc3ccccc3c21
# Test system: lung (A549), breast (MDA-MB-231 and 4T1), and myeloid leukemia (HL60) cell lines
# Assay: Cellular uptake in cancer cell lines, live-cell imaging
# Assay type: cell-based
# Settings: A549, MDA-MB-231, 4T1, HL60
# Method: In general, cultured cancer cells were grown and incubated with the indicated amount of probe in Lab-Tek 8-chambered slides for the indicated time durations. Cells were washed with PBS at selected time points and underwent conventional slide preparation, ICC if indicated, and viewing under epifluorescence or confocal. For live-cell imaging of LS301, internalization at 37° C. in human dermal fibroblasts (Coriell Cell Technologies) and tumor cells including 4T1luc, MDA-MB-231, 5TGM, A549, and HL60 (ATCC) cells were cultured in appropriate media supplemented with 10% […] and penicillin/streptomycin and incubated at 37° C. in 5% CO2 incubator. The cells were grown on Lab-Tek 8-chamber slides (Nunc Inc. Rochester, NY) in the culture medium overnight before the experiment. The compounds were dissolved in 20% DMSO in […] PBS (pH 7.4) (Sigma, St. Louis, MO) for stocking solution and mixed with culture medium to reach the final concentration. Cells were incubated with 1 μM compounds in chamber slides at different time points at 37° C. After LS301 treatment, the culture media was removed and followed by adding culture media containing SYTO 13 nuclear dye from (Thermo Fisher Scientific, Waltham, MA) for 45 minutes at 37° C. For assessing cellular colocalization of LS301 with lipid rafts, the Vybrant AlexaFluor 488 Lipid Raft Labeling Kit (Thermo Fisher Scientific, Waltham, MA, USA) was used per the manufacturer's instructions. […]. LS301 and AlexaFluor 488 fluorescence were imaged using the cypate filter set (Ex/Em 750-800 nm/818-873 nm) and fluorescein isothiocyanate (FITC) filter set (Ex/Em 460-500/510-560 nm), respectively.
smiles,measurement,value
"CC1(C)C(/C=C/C=C/C=C/C=C2/N(CCC(=O)N[C@@H]3CSSC[C@@H](C(=O)N[C@@H](CCCCN)C(=O)O)NC(=O)[C@@H]4CCCN4C(=O)[C@H](CO)NC(=O)[C@H](CC(=O)O)NC(=O)[C@H](CCCNC(=N)N)NC(=O)CNC3=O)c3ccc4ccccc4c3C2(C)C)=[N+](CCC(=O)[O-])c2ccc3ccccc3c21 [LS301, cypate-cyclic (DCys-Gly-Arg-Asp-Ser-Pro-Cys)-Lys-OH] (X1-[dC]GRDSPCK-OH; disulfide 1-7)",time over which maximum cellular uptake is maintained,over 24 hours
same,time to maximum concentration of cellular uptake,12 h
